The record followed here is patent publication US5112845A, “Alpha-heterocycle substituted tolunitriles” (Ciba-Geigy Corporation, priority 1990, dated 1992).

Test [1] deals with female rats. The test can be described thus: in vivo antifertility property (implantation and/or fetal resorption) in rats. Details: species or system rat (Sprague Dawley). The settings on record: Rattus norvegicus, po, administered as the fumarate or hemisuccinate salt, read-out: dose at which fertility is inhibited. On the procedure: Mated female rats (Sprague Dawley) weighing approximately 180-200 g were obtained on the day of coitus. The presence of sperm in the vagina was used as a verification that mating had occurred. On the day of receipt, day of coitus or day 0 of `pregnancy`, the rats are divided into two groups of six to eight rats per group. One group is given various doses of the test compound p.o., suspended in 0.2 ml of carboxymethylcellulose (CMC) beginning on day 1 of `pregnancy` and continuing through day 9 of `pregnancy`. These same rats receive a daily injection of 0.1 ml of sesame oil s.c. over this same time frame. The second group of rats receive the vehicles, CMC p.o. and oil s.c., on days 1-9 of `pregnancy`. All of the rats are sacrificed on day 12 or 13 of `pregnancy`, and their uteri are exposed and examined for fetuses and/or resorption sites.

In test [2] the test system is dimethylbenzanthracene (DMBA)-induced mammary tumors. The test can be described thus: antitumor activity in DMBA-induced mammary tumors in rats. Type of test: in vivo, female Sprague-Dawley rats. The settings on record: Rattus norvegicus, po, read-out: effective daily dose (antitumor). The text has this: Exp. Biol. Med. 160, 296-301 (1979)].
Test [3] deals with estrogen synthesis. The test can be described thus: in vivo inhibition of aromatase activity: inhibition of estrogen synthesis in rats (ovarian estrogen content). The settings on record: po, female rat, PMS/hCG and androstenedione treated; read-out: dose at which estrogen synthesis is inhibited. On the procedure: Twenty-one-day-old female rats are injected subcutaneously with 10 IU pregnant mare serum gonadotropin (PMS). Two days later the same rats are injected subcutaneously with 30 IU human chorionic gonadrotropin (hCG). On the day following the hCG treatment the rats are injected subcutaneously with either propylene glycol (0.2 ml; […].) or with various doses of the test compound. […] Four hours after the injection of androstenedione the rats are sacrificed and their ovaries removed and trimmed free of adhering tissue and stored in pairs at -40° C. To determine the total estrogen content of the ovaries, 1.5 ml of 0.05M aqueous potassium phosphate buffer, pH 7.4, and 0.2 ml of 0.1N aqueous sodium hydroxide are added to the tissues which are then homogenized. The homogenate is extracted with 15 ml of diethyl ether, 5 ml aliquots are radioimmunoassayed with antiserum having 100% cross reactivity with estrone, estradiol and estriol. The ovarian estrogen content is expressed as ng estrogen/pair of ovaries. The inhibition of estrogen synthesis, indicative of aromatase inhibition, is calculated from the ovarian estrogen content in treated as compared to control animals.

Test [4] addresses T1, aromatase (Homo sapiens, UniProt P11511).
T1 construct: A microsomal fraction is prepared from human placenta by the method essentially as described by Thompson and Siiteri; from tissue; host or cells: human placenta, microsomal fraction (lyophilized)
T1 sequence (P11511 1-503): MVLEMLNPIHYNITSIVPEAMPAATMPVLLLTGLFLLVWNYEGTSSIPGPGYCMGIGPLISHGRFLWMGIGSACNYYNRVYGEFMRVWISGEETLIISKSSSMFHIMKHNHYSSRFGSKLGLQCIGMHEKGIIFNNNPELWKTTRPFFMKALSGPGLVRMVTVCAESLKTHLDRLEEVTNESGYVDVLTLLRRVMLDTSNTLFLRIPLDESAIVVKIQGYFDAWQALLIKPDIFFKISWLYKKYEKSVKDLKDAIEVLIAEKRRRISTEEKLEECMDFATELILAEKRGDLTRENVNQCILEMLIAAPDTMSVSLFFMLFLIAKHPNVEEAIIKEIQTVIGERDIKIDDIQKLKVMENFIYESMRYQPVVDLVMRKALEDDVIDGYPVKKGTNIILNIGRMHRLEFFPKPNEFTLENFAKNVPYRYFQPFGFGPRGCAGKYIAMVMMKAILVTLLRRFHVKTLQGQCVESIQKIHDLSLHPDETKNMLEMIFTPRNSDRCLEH
The test can be described thus: in vitro inhibition of aromatase activity (human placental microsomes, aromatization of [1,2-^3 H]-androstenedione). In kind it is biochemical. The settings on record: 20 minutes at 37° C. On the procedure:
The microsomal preparation so obtained is lyophilized and stored at -40° C.
The assay is conducted substantially as described by Thompson and Siiteri. The human placental microsomes are added to [1,2-^3 H]-androstenedioneand incubated for 20 minutes at 37° C. The amount of aromatization of the labelled substrate is detected by the […] of ^3 H2 O into the incubation medium. The substrate is removed by chloroform extraction, followed by adsorption to charcoal in suspension. The charcoal is removed by centrifugation and the steroid-free medium is counted in a liquid scintillation counter. Compounds are tested for aromatase inhibitory activity by adding them to the incubation medium prior to the addition of the microsomes. The relative cpm obtained with and without the inhibitor is used to calculate the percent inhibition of the aromatization of androstenedione to estrone.

The test system of test [5] is female dogs. The test can be described thus: cessation of proestrus and estrus in female dogs treated from proestrus. In kind it is in vivo, dog. The text has this: (§1) Proestrus, for example in the bitch, commences with a vaginal discharge, followed by attraction of the male resulting from estrogen secretion and lasts on an average of 9 days. The females only permit mating during estrus. The compounds of the present invention, when administered to female dogs e.g. on the second day of proestrus, terminate all physical signs of proestrus andestrus and mating will be prevented.
(§2) For example, ten mature beagles during anestrus with known breeding histories were administered e.g. 10.0 mg/kg p.o. daily of the compound of example 46 for 224 days. […] Ten female beagles with known breeding histories were administered 10.0 mg/kg p.o. daily of the compound of example 46 for 91 days beginning on the first day proestrus was noted.

Test [6] deals with female dogs. Description: prevention of proestrus and estrus in female dogs treated during anestrus. Type of test: in vivo, dog. The settings on record: 10.0 mg/kg p.o. daily for 224 days, ten mature beagles during anestrus; controls exhibited proestrus and estrus at least once.
Source text: as §1, §2

pIC50: −log10 of the molar value. Where a name gives a salt, the structure may show the parent alone. Read-outs that look alike come from different tables or passages of the source.

Turning to `N#Cc1ccc(C(c2ccc(C#N)cc2)n2ccnc2)cc1` [Example 2a, 4-[alpha-(4-cyanophenyl)-1-imidazolylmethyl]-benzonitrile], the figures for the minimal effective dose in test [1] and in test [2] were ~4000 µg/kg and ~0.1 mg/kg/day, respectively.

On to `N#Cc1ccc(CC(c2ccc(C#N)cc2)n2ccnc2)cc1` (stereo not drawn) [Example 11f, 4-[alpha-(4-cyanobenzyl)-1-imidazolylmethyl]benzonitrile], for which the minimal effective dose in test [3] was ~3 µg/kg. In test [4], the pIC50 is ~8.52.

For the compound `N#Cc1ccc(C(c2ccc(C#N)cc2)n2cncn2)cc1` [Example 20a, 4-[alpha-(4-cyanophenyl)-1-(1,2,4-triazolyl)-methyl]benzonitrile], in test [2] (daily, p.o., rats, DMBA-induced mammary tumors), the minimal effective dose was ~0.03 mg/kg/day.

With `N#Cc1ccc(C(c2cccnc2)n2ccnc2)cc1` (stereo not drawn) [Example 46, sulfate salt of 4-[alpha-(3-pyridyl)-1-imidazolylmethyl]benzonitrile], the signs of proestrus entry in test [5] (10.0 mg/kg p.o. daily for 91 days beginning on first day of proestrus, ten female beagles) was “All signs of proestrus disappeared”; in test [6], “No signs of proestrus were observed”. Moreover, the “acceptance of a male” value in test [5] (10.0 mg/kg p.o. daily for 91 days, ten female beagles, male presented 9 and 11 days later) is on record as “no dogs accepted a male”. Further, the “proestrus during remainder of treatment” value in test [5] (10.0 mg/kg p.o. daily, remainder of the 91 days, ten female beagles) is recorded as “Proestrus was not observed”. For the same compound, the “acceptance of a male dog” value in test [5] (10.0 mg/kg p.o. daily, 9 and 11 days following the initial sign of proestrus) is given as “refused to accept a male dog”. Further, the “dogs exhibiting estrus during recovery” value in test [5] (190 days recovery period after 91 days at 10.0 mg/kg p.o. daily) was “eight of ten dogs exhibited estrus”.

Turning to `N#Cc1ccc(C(c2cccnc2)n2ccnc2)cc1` (stereo not drawn) [Example 5e, 4-[alpha-(3-pyridyl)-1-imidazolylmethyl]-benzonitrile], the minimal effective dose in test [3] was ~3 µg/kg. For the same compound, the negative logarithm of the IC50 (pIC50) in test [4] was ~7.80.

As a reminder, the pIC50 is −log10 of the IC50, conventionally taken in molar units. The low end stands for a high IC50, the high end for a low IC50.
